Assay results taken from US11219216B2, “Method of improving tolerance of plants to herbicides using seed insecticide treatments” (priority 2015, dated 2022).
Like-named read-outs stand apart in the source and are kept apart here.

Columns and labels:
[1] = tested on: Ozark conventional soybean; details: for Soybean Injury (%) 10 DAT / Soybean Injury (%) 35 DAT: fungicide-only seed
Protocol: A field experiment was conducted in the summer of 2014 near Newport, Ark. to evaluate the effect of a soybean insecticide seed treatment, Cruiser Maxx, on herbicide injury to convention soybean. The conventional soybean variety Ozark was planted on 7-17-14 in plots measuring 7.5×20 feet in size. In each plot, half the drill rows were treated with Cruiser Maxx at 7 oz/cwt, and the other half were treated with only the fungicide portion of that treatment. Seeding rate was 125,000 seeds per acre. Seed were planted to a depth of 0.5 inches. Soil temperature at the time of planting and application of the PRE treatments was 62 degrees F.
Post emerge treatments included Roundup PowerMax (2 and 4 oz/A), Liberty (2 and 4 oz/A), dicamba (0.25 and 0.5 oz/A), 2,4-D (0.75 and 1.5 oz/A) and Permit at 0.5 and 1.0 oz/A applied at the third trifoliate stage. Herbicides were applied with a 4 nozzle boom calibrated to deliver 15 GPA using CO2 as a propellant.
Plots were visually rated for herbicide injury at 10 days after emergence and at 35 days after application of the POST treatments. The rating scale was 0 to 100 where 0=no injury and 100=complete death or desiccation of the plant. Means were separated using Fisher's protected LSD (0.05).

[2] = tested on: cotton; details: insecticide applied in-furrow; York et al. (1991); cited from earlier work
[3] = tested on: conventional rice (Roy J); assay type: in vivo
Protocol: This experiment was conducted at a farm located just north of Lonoke, Ark. in the summers of 2013 and 2014. The soil texture is a silt loam with a pH of 6.3. Conventional rice (Roy J) was planted on Apr. 30, 2013 and May 20, 2014 with a Hege cone drill calibrated to deliver a seeding rate of 90 pounds (lbs)/Acre on 7.5-inch rows. Plot size was 5×25 feet. The study was conducted with a randomized complete block design having 4 replications.
Treatments consisted of seed treatment and herbicide combinations. […] The second seed treatment was considered the “nontreated seed” which actually received equivalent amounts of azoxystrobin, mefenoxam and fludioxonil as the treated seed but without the insecticide thiamethoxam.
The herbicide treatments were applied at the 2-4 If growth stage of rice with a CO2 backpack sprayer calibrated to deliver 10 gallons of spray solution per acre. Herbicide treatments included Roundup PowerMax (5.5 lb ai/gallon formulation) applied at 0, 1, 2, and 4.0 oz product/A and Newpath 2AS (2 lb ai/gallon formulation) applied at 0, 0.25, 0.5 and 1.0 oz product/A. The plot area was maintained weed free with conventional rice herbicides and the rice was grown according to University of Arkansas recommendations for soil fertility.
Data collected included: percent visual injury at 7, 21, and 42 days after treatment (DAT) on a scale of 0 to 100 with 0 being no injury and 100 being complete crop death; canopy heights at 68 DAT using a yard stick and 1 meter square piece of cardboard, percent rice heading at 107 DAT, percent moisture, and grain yield at harvest. Data were analyzed and LSD's generated at the p=0.05 level of significance using ARM 9.1.4.

[4] = POST at third trifoliate, averaged across two rates (Roundup PowerMax 2 and 4, dicamba 0.25 and 0.5, 2,4-D 0.75 and 1.5, Permit 0.5 and 1.0 oz/A), Treated soybean (Cruiser Maxx 7 oz/cwt)
[5] = POST at third trifoliate, averaged across two rates (Roundup PowerMax 2 and 4, dicamba 0.25 and 0.5, 2,4-D 0.75 and 1.5, Permit 0.5 and 1.0 oz/A)
[6] = PRE, (T) = Treated soybean (Cruiser Maxx 7 oz/cwt), Metribuzin 0.671 lb/A, Dual Magnum 2.0 pts/A, Zidua 3.5 oz/A, Valor 2.0 oz/A, mixes at same rates
[7] = PRE, Metribuzin 0.671 lb/A, Dual Magnum 2.0 pts/A, Zidua 3.5 oz/A, Valor 2.0 oz/A, mixes at same rates

SMILES | Soybean Injury (%) 10 DAT (T) [1, 4] [%] | Soybean Injury (%) 35 DAT (T) [1, 4] [%] | Soybean Injury (%) 10 DAT [1, 5] [%] | Soybean Injury (%) 35 DAT [1, 5] [%] | clomazone injury to cotton [2] | other results
O=C(O)COc1ccc(Cl)cc1Cl [2,4-D] | 15 | 5 | 15 | 5 |  | 
COc1c(Cl)ccc(Cl)c1C(=O)O [Dicamba, dicamba] | 60 | 30 | 60 | 30 |  | 
CSc1nnc(C(C)(C)C)c(=O)n1N [Metribuzin, metribuzin] |  |  |  |  |  | Soybean Injury (%) 10 DAT (T) [1, 6]: 0%; Soybean Injury (%) 35 DAT (T) [1, 6]: 0%; Soybean Injury (%) 10 DAT [1, 7]: 0%; Soybean Injury (%) 35 DAT [1, 7]: 0%
CCOP(=S)(OCC)SCCSCC [disulfoton] |  |  |  |  | greatly reduced | 
CCOP(=S)(OCC)SCSCC [phorate] |  |  |  |  | greatly reduced | 
CN1COCN(Cc2cnc(Cl)s2)/C1=N\[N+](=O)[O-] [thiamethoxam] |  |  |  |  |  | heading ([3]; 107 DAT, all plots that received the insecticide in the seed treatment): 95-100%; yield higher for treated seed plots versus untreated or fungicide only plots ([3]; 2013, Newpath at either 0.25 or 0.5 oz/A): 100 bu/A; yield improved by addition of a seed treatment that included the insecticide ([3]; 2013, Roundup 4.0 oz/A): over 60 bushels
